Measured values reported in patent US10501518B2 (priority 2013, dated 2019).
Starred links: 1 amine or outer side, 2 acyl side, 3 side chain; linkers in the order of their positions; H or OH if unused. Non-standard residues stand in square brackets, D forms with d. Residues, ends and D or L forms follow the SMILES beside them. *: point of attachment. NH(1S,2S-2-CONH2-cPent) = NC(=O)[C@H]1CCC[C@@H]1N*; X12 = O=C([C@H]1CCC[C@@H]1N[*:1])[*:2]; X13 = O=C([C@H]1CNC[C@@H]1N[*:1])[*:2]; ACPC(1S,2S) = N[C@H]1CCC[C@@H]1C(=O)*

Key:
PTHR = target: T1, PTHR (Homo sapiens, UniProt Q03431); assay: cAMP induction potency, N-terminal modifications and cyclic constraints (Tables 9, 10, 13); format: cell-based; settings: Table 9
T1 construct: expressed in transfected cells
T1 sequence (Q03431 27-593): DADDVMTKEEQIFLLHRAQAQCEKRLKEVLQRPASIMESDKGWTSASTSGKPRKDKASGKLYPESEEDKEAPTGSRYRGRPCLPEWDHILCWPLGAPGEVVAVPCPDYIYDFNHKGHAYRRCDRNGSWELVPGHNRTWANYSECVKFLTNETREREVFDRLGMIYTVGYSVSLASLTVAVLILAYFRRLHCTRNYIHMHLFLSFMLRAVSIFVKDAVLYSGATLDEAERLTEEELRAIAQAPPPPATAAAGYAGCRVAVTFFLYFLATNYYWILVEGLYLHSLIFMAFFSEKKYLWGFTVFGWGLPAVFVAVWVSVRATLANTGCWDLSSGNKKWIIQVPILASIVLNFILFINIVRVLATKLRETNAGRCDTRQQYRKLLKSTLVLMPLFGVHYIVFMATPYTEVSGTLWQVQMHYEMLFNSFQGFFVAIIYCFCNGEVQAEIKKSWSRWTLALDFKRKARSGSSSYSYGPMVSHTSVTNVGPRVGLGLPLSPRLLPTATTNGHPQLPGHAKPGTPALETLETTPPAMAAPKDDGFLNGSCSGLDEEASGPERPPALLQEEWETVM

PTH2R/PTH1R = assay: cAMP response selectivity between PTH2R and PTH1R; format: cell-based; settings: most selective; for cAMP response PTH2R/PTH1R: Table 16; for cAMP response PTH1R/PTH2R: Table 17
Source text: Selected analogs containing beta-amino acid substitutions selectively signal through one or the other of the two receptors. Without being bound to any underling biological phenomenon or mechanism, PTHR-2 likely serves an alternative function to PTHR-1 as it is highly expressed in the central nervous system. In contrast, PTHR-1 is highly expressed in bone and kidney, but not in the CNS. The analogs disclosed herein are thus useful as therapeutic compounds that a specific agonists or antagonists of PTHR-1 and PTHR-2.

R^0 form of rat PTHR-1 = target: T2, R^0 form of rat PTHR-1 (Rattus norvegicus, UniProt P25961); assay: Radio-ligand competition binding to R^0 form of rat PTHR-1; settings: Table 5; rat PTHR-1; mean ± SEM; read-out: R^0 -log (IC50) (converted)
T2 construct: expressed in transfected cells; host or cells: COS-7
T2 sequence (P25961 27-591): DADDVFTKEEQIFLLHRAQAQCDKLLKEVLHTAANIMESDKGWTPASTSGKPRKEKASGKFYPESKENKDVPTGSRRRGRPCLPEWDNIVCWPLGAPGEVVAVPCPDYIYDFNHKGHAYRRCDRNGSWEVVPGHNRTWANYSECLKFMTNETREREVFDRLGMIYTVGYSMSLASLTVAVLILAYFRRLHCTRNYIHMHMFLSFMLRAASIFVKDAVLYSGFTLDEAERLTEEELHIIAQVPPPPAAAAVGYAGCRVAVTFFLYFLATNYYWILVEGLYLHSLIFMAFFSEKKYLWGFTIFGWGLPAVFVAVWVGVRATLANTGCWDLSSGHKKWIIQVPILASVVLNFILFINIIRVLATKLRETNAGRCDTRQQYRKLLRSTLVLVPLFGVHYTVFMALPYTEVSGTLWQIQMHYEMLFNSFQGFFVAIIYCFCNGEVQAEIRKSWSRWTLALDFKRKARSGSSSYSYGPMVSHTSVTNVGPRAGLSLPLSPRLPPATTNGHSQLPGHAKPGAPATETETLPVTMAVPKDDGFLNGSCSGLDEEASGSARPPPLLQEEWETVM
Source text: (§1) Data are means (±SEM) of n≥4 experiments, each performed in duplicate.

WT human PTHR-1 = target: T3, WT human PTHR-1 (Homo sapiens, UniProt Q03431); assay: cAMP GloSensor dose-response in GP-2.3 cells expressing human PTHR-1; format: cell-based; settings: for EC50 / cAMP (hPTHR-1) Max: Table 1; for EC50 / Max: GP-2.3 cells; for EC50: read-out: cAMP (hPTHR-1) EC50; for cAMP (hPTHR-1) Max: luminescence counts per second relative to PTH(1-34); for cAMP (hPTHR-1) Max / Max: 12-16 minutes after ligand addition; for Max: Table 6, mean ± SEM; for agonist activity at hPTHR-1 (cAMP response), in words: maximum cAMP response compared with PTH(1-34)
T3 construct: bioactivity of the resulting compound in full-length hPTHR-1 and a truncated version; expressed in transfected cells
T3 sequence (Q03431 27-593): T1 sequence (Q03431 27-593)
Protocol: FIGS. 8A, 8B, and 8C constitute a series of graphs depicting cAMP responses in GP-2.3 cells expressing wild-type human parathyroid hormone receptor 1 (PTHR-1-WT). […] Data are means (±SEM) of n>4 experiments, each performed in duplicate.
(§2) For cAMP dose-response assays, monolayers of confluent HEK 293 cells were pre-incubated with buffer containing d-luciferin (0.5 mM) in 96 well plates at room temperature until a stable baseline level of luminescence was established (30 min). Varying concentrations of agonist were then added, and the time course of luminescence response was recorded using a Perkin Elmer plate reader following α/β-peptide addition.

WT rat PTHR-1 = target: T4, WT rat PTHR-1 (Rattus norvegicus, UniProt P25961); assay: cAMP GloSensor dose-response in GR-35 cells expressing rat PTHR-1; format: cell-based; settings: Table 7; GR-35 cells, 12-16 minutes after ligand addition; mean ± SEM
T4 construct: expressed in transfected cells
T4 sequence (P25961 27-591): T2 sequence (P25961 27-591)
Protocol: FIGS. 9A, 9B, and 9C constitute a series of graphs depicting cAMP responses in GR-35 cells expressing rat PTHR-1-WT. […] Data are means (±SEM) of n>4 experiments, each performed in duplicate.
as §2

R^0 form of human PTHR-1 = target: T5, R^0 form of human PTHR-1 (Homo sapiens, UniProt Q03431); assay: Radio-ligand competition binding to R^0 form of human PTHR-1 (COS-7 membranes, 125I-PTH(1-34) tracer, GTPγS)
T5 construct: expressed in transfected cells; host or cells: COS-7
T5 sequence (Q03431 27-593): T1 sequence (Q03431 27-593)
Source text: as §1

Row | Molecule | cAMP response PTH2R/PTH1R (PTH2R/PTH1R) | cAMP response PTH1R/PTH2R (PTH2R/PTH1R) | EC50 (WT human PTHR-1) [nM] | cAMP (hPTHR-1) Max (WT human PTHR-1) | Max (WT human PTHR-1) | agonist activity at hPTHR-1 (cAMP response), in words (WT human PTHR-1) | Max (WT rat PTHR-1) | other results
1 | CSCC[C@H](NC(=O)[C@H]1CCC[C@@H]1NC(=O)[C@H](CCC(N)=O)NC(=O)[C@H]1CCC[C@@H]1NC(=O)[C@H](CCC(=O)O)NC(=O)[C@H](CO)NC(=O)[C@@H](NC(=O)[C@H]1CCC[C@@H]1N)C(C)C)C(=O)N[C@@H](Cc1c[nH]cn1)C(=O)N[C@@H](CC(N)=O)C(=O)N[C@@H](CC(C)C)C(=O)NCC(=O)N[C@@H](CCCCN)C(=O)N[C@H]1CCC[C@@H]1C(=O)N[C@@H](CC(C)C)C(=O)N[C@@H](CC(N)=O)C(=O)N[C@@H](CO)C(=O)N[C@H]1CCC[C@@H]1C(=O)N[C@@H](CCC(=O)O)C(=O)N[C@@H](CCCNC(=N)N)C(=O)N[C@H](C(=O)N[C@H]1CNC[C@@H]1C(=O)N[C@@H](Cc1c[nH]c2ccccc12)C(=O)N[C@@H](CC(C)C)C(=O)N[C@@H](CCCNC(=N)N)C(=O)N[C@H]1CNC[C@@H]1C(=O)N[C@@H](CCCCN)C(=O)N[C@@H](CC(C)C)C(=O)N[C@@H](CCC(N)=O)C(=O)N[C@H]1CCC[C@@H]1C(=O)N[C@H](C(=O)N[C@@H](Cc1c[nH]cn1)C(=O)N[C@@H](CC(N)=O)C(=O)N[C@H]1CCC[C@@H]1C(N)=O)C(C)C)C(C)C [FcycD6_ACPC(1,5,7), XVSEXQXMHNLGKXLNSXERVZWLRZKLQXVHNX-NH2] ({ACPC(1S,2S)}-VSE[X12]Q[X12]MHNLGK[X12]LNS[X12]ERV[X13]WLR[X13]KLQ[X12]VHN-{NH(1S,2S-2-CONH2-cPent)}; N-terminus assumed) | 45 | – | – | – | – | – | – | Fold PTH (PTHR): 234
2 | hPTHrP(1-36): parathyroid hormone-related protein fragment, comparator in the PTH2R/PTH1R cAMP response tables | 0.04 | 27 | – | – | – | – | – | –
3 | CC[C@H](C)[C@H](NC(=O)[C@H](CCC(=O)O)NC(=O)[C@H](CO)NC(=O)[C@@H](NC(=O)[C@@H](N)CO)C(C)C)C(=O)N[C@@H](CCC(N)=O)C(=O)N[C@@H](CC(C)C)C(=O)N[C@@H](CCSC)C(=O)N[C@@H](Cc1c[nH]cn1)C(=O)N[C@@H](CC(N)=O)C(=O)N[C@@H](CC(C)C)C(=O)NCC(=O)N[C@@H](CCCCN)C(=O)N[C@@H](Cc1c[nH]cn1)C(=O)N[C@@H](CC(C)C)C(=O)N[C@@H](CC(N)=O)C(=O)N[C@@H](CO)C(=O)N[C@@H](CCSC)C(=O)N[C@@H](CCC(=O)O)C(=O)N[C@@H](CCCNC(=N)N)C(=O)N[C@H](C(=O)N[C@@H](CCC(=O)O)C(=O)N[C@@H](Cc1c[nH]c2ccccc12)C(=O)N[C@@H](CC(C)C)C(=O)N[C@@H](CCCNC(=N)N)CC(=O)N[C@@H](CCCCN)C(=O)N[C@@H](CCCCN)C(=O)N[C@@H](CC(C)C)C(=O)N[C@@H](CCC(N)=O)CC(=O)N[C@@H](CC(=O)O)C(=O)N[C@H](C(=O)N[C@@H](Cc1c[nH]cn1)C(=O)N[C@@H](CC(N)=O)CC(=O)N[C@@H](Cc1ccccc1)C(N)=O)C(C)C)C(C)C [C3] | – | – | 0.58 | 1.03 | 223 ± 14 luminescence counts per second × 10^−3 | full agonists of hPTHR-1 | 68 ± 77 luminescence counts per second × 10−3 | IC50 (R^0 form of rat PTHR-1): 4.57 nM
4 | hTIP(1-39): comparator peptide in the PTH2R/PTH1R cAMP response tables (SLALADDAAFRERARLLAALERRHWLNSYMHKLLVLDAP) | 165 | 0.01 | – | – | – | – | – | –
5 | CC[C@H](C)[C@H](NC(=O)[C@H](CCC(=O)O)NC(=O)[C@H](CO)NC(=O)[C@@H](NC(=O)[C@@H](N)CO)C(C)C)C(=O)N[C@@H](CCC(N)=O)C(=O)N[C@@H](CC(C)C)C(=O)N[C@@H](CCSC)C(=O)N[C@@H](Cc1c[nH]cn1)C(=O)N[C@@H](CC(N)=O)C(=O)N[C@@H](CC(C)C)C(=O)NCC(=O)N[C@@H](CCCCN)C(=O)N[C@@H](Cc1c[nH]cn1)C(=O)N[C@@H](CC(C)C)C(=O)N[C@@H](CC(N)=O)C(=O)N[C@@H](CO)C(=O)N[C@@H](CCSC)C(=O)N[C@@H](CCC(=O)O)C(=O)N[C@@H](CCCNC(=N)N)C(=O)N[C@H](C(=O)N[C@@H](CCC(=O)O)C(=O)N[C@@H](Cc1c[nH]c2ccccc12)C(=O)N[C@H](CC(=O)N[C@@H](CCCNC(=N)N)C(=O)N[C@@H](CCCCN)C(=O)N[C@@H](CCCCN)C(=O)N[C@H](CC(=O)N[C@@H](CCC(N)=O)C(=O)N[C@@H](CC(=O)O)C(=O)N[C@H](C(=O)N[C@@H](CCC(N)=O)CC(=O)N[C@@H](CC(N)=O)C(=O)N[C@@H](Cc1ccccc1)C(N)=O)C(C)C)CC(C)C)CC(C)C)C(C)C [B3] | – | – | 0.11 | 1.08 | 234 ± 16 luminescence counts per second × 10^−3 | full agonists of hPTHR-1 | 69 ± 78 luminescence counts per second × 10−3 | IC50 (R^0 form of human PTHR-1; Table 1, COS-7 membranes, 125I-PTH(1-34) tracer, GTPγS, read-out: R^0 IC50, nM, Binding (hPTHR-1)): 80 nM
6 | CC[C@H](C)[C@H](NC(=O)[C@H](CCC(=O)O)NC(=O)[C@H](CO)NC(=O)[C@@H](NC(=O)[C@@H](N)CO)C(C)C)C(=O)N[C@@H](CCC(N)=O)C(=O)N[C@@H](CC(C)C)C(=O)N[C@@H](CCSC)C(=O)N[C@@H](Cc1c[nH]cn1)C(=O)N[C@@H](CC(N)=O)C(=O)N[C@@H](CC(C)C)C(=O)NCC(=O)N[C@@H](CCCCN)C(=O)N[C@@H](Cc1c[nH]cn1)C(=O)N[C@@H](CC(C)C)C(=O)N[C@@H](CC(N)=O)C(=O)N[C@@H](CO)C(=O)N[C@@H](CCSC)C(=O)N[C@@H](CCC(=O)O)C(=O)N[C@@H](CCCNC(=N)N)C(=O)N[C@H](C(=O)N[C@@H](CCC(=O)O)C(=O)N[C@@H](Cc1c[nH]c2ccccc12)C(=O)N[C@@H](CC(C)C)C(=O)N[C@@H](CCCNC(=N)N)C(=O)N[C@@H](CCCCN)CC(=O)N[C@@H](CCCCN)C(=O)N[C@@H](CC(C)C)C(=O)N[C@@H](CCC(N)=O)C(=O)N[C@@H](CC(=O)O)CC(=O)N[C@H](C(=O)N[C@@H](Cc1c[nH]cn1)C(=O)N[C@@H](CC(N)=O)C(=O)N[C@H](CC(N)=O)Cc1ccccc1)C(C)C)C(C)C [D3] | – | – | – | 1.04 | 226 ± 15 luminescence counts per second × 10^−3 | full agonists of hPTHR-1 | 65 ± 62 luminescence counts per second × 10−3 | affinity for the R^0 state of hPTHR-1, in words (R^0 form of human PTHR-1; compared with PTH(1-34)): matches PTH(1-34)
